The text below walks through data of patent publication US9023789B2, “Amylin analogs and pharmaceutical compositions thereof” (Novo Nordisk A/S, priority 2012, dated 2015).

Test [1] concerns the target T1, human amylin receptor (membranes from Amylin 3(a)/CRE-luc cells) (Homo sapiens, UniProt O60896+P30988).
T1 construct: expressed in transfected cells
T1 sequence (P30988 25-474): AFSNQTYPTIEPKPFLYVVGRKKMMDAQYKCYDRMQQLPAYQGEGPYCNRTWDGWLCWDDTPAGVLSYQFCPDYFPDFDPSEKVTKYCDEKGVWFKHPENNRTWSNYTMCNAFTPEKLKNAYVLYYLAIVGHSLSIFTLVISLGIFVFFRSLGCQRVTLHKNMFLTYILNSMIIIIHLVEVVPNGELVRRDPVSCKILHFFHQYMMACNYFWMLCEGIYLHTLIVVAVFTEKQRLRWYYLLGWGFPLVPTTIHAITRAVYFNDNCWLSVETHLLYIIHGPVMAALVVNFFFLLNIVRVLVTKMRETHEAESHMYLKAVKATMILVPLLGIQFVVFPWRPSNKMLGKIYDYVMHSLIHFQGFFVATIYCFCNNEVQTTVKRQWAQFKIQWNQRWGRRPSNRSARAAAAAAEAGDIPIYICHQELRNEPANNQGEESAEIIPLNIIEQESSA
T1 sequence (O60896 24-148 partner): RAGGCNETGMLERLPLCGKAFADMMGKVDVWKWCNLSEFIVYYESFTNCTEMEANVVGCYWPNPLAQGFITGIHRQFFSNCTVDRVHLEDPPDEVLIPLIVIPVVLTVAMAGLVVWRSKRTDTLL
The experiment in a line: ASSAY (V) binding to the human amylin receptor (SPA, 125I-rat amylin).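 On all read-outs here: competition binding of cell membranes (35 ng/µL) mixed with SPA beads in 384-well plates at 40 µL total volume, read by scintillation counting.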 As to conditions: for IC50: Table 4, read-out: hAmylin-R bind IC50.

The target of test [2] is T2, human amylin 3(a) receptor (human calcitonin receptor + RAMP-3) in BHK570 cells (Homo sapiens, UniProt O60896+P30988).
T2 construct: expressed in transfected cells
Briefly: ASSAY (II)a functional assay, human amylin receptor (CRE luciferase). It counts as cell-based. As to conditions: for EC50: human amylin receptor functional potency, assay (II), read-out: hAmylin-R funct. EC50. In a few lines:
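Read-out: CRE-driven luciferase luminescence, single photon counting, after 30 min at room temperature with LucLite. BHK cells expressed calcitonin receptor alone or with RAMP-3 (amylin 3(a)). Cells were stimulated 3 h at 37° C in DMEM, 10% FBS, 10 mM Hepes, pH 7.4.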

A further test deals with T3, rat calcitonin receptor (Rattus norvegicus, UniProt P32214).
T3 construct: expressed in transfected cells; host or cells: BHK tk'ts 13 (transient, FuGENE 6), membranes
T3 sequence (P32214 25-479 isoform P32214-2 limits assumed): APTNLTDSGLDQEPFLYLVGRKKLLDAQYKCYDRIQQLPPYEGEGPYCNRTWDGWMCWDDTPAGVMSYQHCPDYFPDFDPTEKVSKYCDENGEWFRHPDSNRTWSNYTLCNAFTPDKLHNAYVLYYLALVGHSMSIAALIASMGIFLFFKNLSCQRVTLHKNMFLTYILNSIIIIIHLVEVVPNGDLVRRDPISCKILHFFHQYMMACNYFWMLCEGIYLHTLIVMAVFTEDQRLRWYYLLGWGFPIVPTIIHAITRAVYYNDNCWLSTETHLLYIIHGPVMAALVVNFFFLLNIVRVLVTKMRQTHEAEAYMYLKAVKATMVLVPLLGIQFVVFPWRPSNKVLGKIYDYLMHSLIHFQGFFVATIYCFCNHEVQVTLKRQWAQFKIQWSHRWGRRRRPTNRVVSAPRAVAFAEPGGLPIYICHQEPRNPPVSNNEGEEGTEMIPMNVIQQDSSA
Briefly: ASSAY (VIII) binding to the rat calcitonin receptor. As to conditions: Table 7, read-out: rCTR bind IC50. The method, boiled down: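 Cell membranes for binding came from BHK tk′ts 13 cells harvested approximately 48 hours after transient transfection with the rat receptor.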

Setting [3] is: Table 5, selectivity, hCTR bind IC50 / hAmylin-R bind IC50.
Setting [4] is: Table 5a, selectivity, hCTR bind IC50 / hAmylin-R bind IC50.
The mark [5] stands for this setting: Table 5b, selectivity, hCTR bind IC50 / hAmylin-R bind IC50.
Where [6] appears, read: Table 5c, selectivity, hCTR bind IC50 / hAmylin-R bind IC50.
Where [7] appears, read: Table 7, human binding selectivity, included for comparison.
Setting [8] is: Table 7a (preferred compounds), human binding selectivity, included for comparison.
Setting [9] is: ratio of human calcitonin receptor binding IC50 to human amylin receptor binding IC50.
[10] abbreviates: hCTR funct. EC50 divided by hAmylin-R funct. EC50.
Setting [11] is: hCTR funct. EC50 over hAmylin-R funct. EC50.
Setting [12] is: human functional selectivity: hCTR funct. EC50 / hAmylin-R funct. EC50.

Numbered stars: 1 amine (or outer) side, 2 acyl side, 3 side chain; on linkers, the order of the positions; unused ones are H or OH. Bridge positions count the residues as written; N and C are the ends. Side chains are listed from the residue outwards. Peptide text beside a SMILES is read from it. * marks the point of attachment. C20 diacid = O=C(O)CCCCCCCCCCCCCCCCCCC(=O)*; γGlu = O=C(O)[C@H](CCC(=O)[*:2])N[*:1]

Take `CC[C@H](C)[C@H](NC(=O)[C@H](C)NC(=O)CNC(=O)[C@H](Cc1ccccc1)NC(=O)[C@H](CC(N)=O)NC(=O)[C@@H]1CCCN1C(=O)[C@H](CO)NC(=O)[C@H](CO)NC(=O)[C@H](Cc1c[nH]cn1)NC(=O)[C@H](CCCNC(=N)N)NC(=O)[C@H](CC(C)C)NC(=O)[C@H](Cc1ccccc1)NC(=O)[C@H](CC(N)=O)NC(=O)[C@H](C)NC(=O)[C@H](CC(C)C)NC(=O)[C@H](CCCNC(=N)N)NC(=O)[C@H](CCC(N)=O)NC(=O)[C@@H](NC(=O)[C@H](C)NC(=O)[C@@H]1CSSC[C@H](NC(=O)[C@H](CCCCN)NC(=O)CC[C@H](NC(=O)CCCCCCCCCCCCCCCCCCC(=O)O)C(=O)O)C(=O)N[C@@H](CC(N)=O)C(=O)N[C@@H]([C@@H](C)O)C(=O)N[C@@H](C)C(=O)N[C@@H]([C@@H](C)O)C(=O)N1)[C@@H](C)O)C(=O)N1CCC[C@H]1C(=O)N[C@@H](CO)C(=O)N[C@@H](CO)C(=O)N[C@H](C(=O)N1CCC[C@H]1C(=O)N[C@H](C(=O)NCC(=O)N[C@@H](CO)C(=O)N[C@@H](CCC(=O)O)C(=O)N[C@H](C(=O)N[C@@H](Cc1ccc(O)cc1)C(N)=O)[C@@H](C)O)C(C)C)[C@@H](C)O` [Example 28] ({C20 diacid-γGlu}-KCNTATCATQRLANFLRHSSPNFGAIPSSTPVGSETY-NH2; disulfide 2-7 (inferred)): the IC50 in test [1] worked out at 0.61 nM; on rat calcitonin receptor it was 54.9 nM. Moreover, the “Ratio hCT/hAmylin binding” value in test [1] (setting [3]), in test [1] (setting [4]), in test [1] (setting [5]), in test [1] (setting [6]), in test [1] (setting [7]) and in test [1] (setting [8]) was 20.5 in each case. Further, the “Ratio hCT/hAmylin binding” value in test [1] (setting [9]) was 20.5. In addition, the “Ratio hCT/hAmylin funct.” value in test [2] (setting [10]), in test [2] (setting [11]) and in test [2] (setting [12]) was 9.2 each time. The EC50 in test [2] was found to be 0.22 nM.
On to `CC[C@H](C)[C@H](NC(=O)[C@H](C)NC(=O)CNC(=O)[C@H](Cc1ccccc1)NC(=O)[C@H](CC(N)=O)NC(=O)[C@@H]1CCCN1C(=O)[C@H](CO)NC(=O)[C@H](CO)NC(=O)[C@H](Cc1c[nH]cn1)NC(=O)[C@H](CCCNC(=N)N)NC(=O)[C@H](CC(C)C)NC(=O)[C@H](Cc1ccccc1)NC(=O)[C@H](CCC(=O)O)NC(=O)[C@H](C)NC(=O)[C@H](CC(C)C)NC(=O)[C@H](CCCNC(=N)N)NC(=O)[C@H](CCC(N)=O)NC(=O)[C@@H](NC(=O)[C@H](C)NC(=O)[C@@H]1CSSC[C@H](NC(=O)[C@@H](N)CCCCNC(=O)CC[C@H](NC(=O)CCCCCCCCCCCCCCCCCCC(=O)O)C(=O)O)C(=O)N[C@@H](CC(N)=O)C(=O)N[C@@H]([C@@H](C)O)C(=O)N[C@@H](C)C(=O)N[C@@H]([C@@H](C)O)C(=O)N1)[C@@H](C)O)C(=O)N1CCC[C@H]1C(=O)N[C@@H](CO)C(=O)N[C@@H](CO)C(=O)N[C@H](C(=O)N[C@@H](CC(N)=O)C(=O)N[C@H](C(=O)NCC(=O)N[C@@H](CO)C(=O)N[C@@H](CCCNC(=N)N)C(=O)N[C@H](C(=O)N[C@@H](Cc1ccc(O)cc1)C(N)=O)[C@@H](C)O)C(C)C)[C@@H](C)O` [Example 51] (H-K([γGlu-C20 diacid])CNTATCATQRLAEFLRHSSPNFGAIPSSTNVGSRTY-NH2; disulfide 2-7 (inferred); N-terminus assumed), for which the “Ratio hCT/hAmylin binding” value in test [1] (setting [3]), in test [1] (setting [4]), in test [1] (setting [5]), in test [1] (setting [6]), in test [1] (setting [7]) and in test [1] (setting [8]) was 37.5 each time. Further, the “Ratio hCT/hAmylin binding” value in test [1] (setting [9]) stood at 37.5. The “Ratio hCT/hAmylin funct.” value in test [2] (setting [10]), in test [2] (setting [11]) and in test [2] (setting [12]) was 14.0 each time. The IC50 at rat calcitonin receptor came to 62 nM.
On to `CC[C@H](C)[C@H](NC(=O)[C@H](C)NC(=O)CNC(=O)[C@H](Cc1ccccc1)NC(=O)[C@H](CC(N)=O)NC(=O)[C@@H]1CCCN1C(=O)[C@H](CO)NC(=O)[C@H](CO)NC(=O)[C@H](Cc1c[nH]cn1)NC(=O)[C@H](CCCNC(=N)N)NC(=O)[C@H](CC(C)C)NC(=O)[C@H](Cc1ccccc1)NC(=O)[C@H](CCC(=O)O)NC(=O)[C@H](C)NC(=O)[C@H](CC(C)C)NC(=O)[C@H](CCCNC(=N)N)NC(=O)[C@H](CCC(N)=O)NC(=O)[C@@H](NC(=O)[C@H](C)NC(=O)[C@@H]1CSSC[C@H](NC(=O)[C@@H](N)CCCCNC(=O)CC[C@H](NC(=O)CCCCCCCCCCCCCCCCCCC(=O)O)C(=O)O)C(=O)N[C@@H](CC(N)=O)C(=O)N[C@@H]([C@@H](C)O)C(=O)N[C@@H](C)C(=O)N[C@@H]([C@@H](C)O)C(=O)N1)[C@@H](C)O)C(=O)N1CCC[C@H]1C(=O)N[C@@H](CO)C(=O)N[C@@H](CO)C(=O)N[C@H](C(=O)N[C@@H](CC(N)=O)C(=O)N[C@H](C(=O)NCC(=O)N1CCC[C@H]1C(=O)N[C@@H](CCC(=O)O)C(=O)N[C@H](C(=O)N[C@@H](Cc1ccc(O)cc1)C(N)=O)[C@@H](C)O)C(C)C)[C@@H](C)O` [Example 109] (H-K([γGlu-C20 diacid])CNTATCATQRLAEFLRHSSPNFGAIPSSTNVGPETY-NH2; disulfide 2-7 (inferred); N-terminus assumed), for which the “Ratio hCT/hAmylin binding” value in test [1] (setting [3]), in test [1] (setting [4]), in test [1] (setting [5]), in test [1] (setting [6]), in test [1] (setting [7]) and in test [1] (setting [8]) was 13.3 in each case. Also, the “Ratio hCT/hAmylin binding” value in test [1] (setting [9]) is 13.3. The “Ratio hCT/hAmylin funct.” value in test [2] (setting [10]), in test [2] (setting [11]) and in test [2] (setting [12]) was 5.2 throughout. Moreover, at rat calcitonin receptor, the IC50 worked out at 10.4 nM.
On to `CC[C@H](C)[C@H](NC(=O)[C@H](C)NC(=O)CNC(=O)[C@H](Cc1ccccc1)NC(=O)[C@H](CC(N)=O)NC(=O)[C@@H]1CCCN1C(=O)[C@H](CO)NC(=O)[C@H](CO)NC(=O)[C@H](Cc1c[nH]cn1)NC(=O)[C@H](CCCNC(=N)N)NC(=O)[C@H](CC(C)C)NC(=O)[C@H](Cc1ccccc1)NC(=O)[C@H](CC(N)=O)NC(=O)[C@H](C)NC(=O)[C@H](CC(C)C)NC(=O)[C@H](CCCNC(=N)N)NC(=O)[C@H](CCC(N)=O)NC(=O)[C@@H](NC(=O)[C@H](C)NC(=O)[C@@H]1CSSC[C@H](NC(=O)[C@H](CCCCN)NC(=O)CC[C@H](NC(=O)CCCCCCCCCCCCCCCCCCC(=O)O)C(=O)O)C(=O)N[C@@H](CC(N)=O)C(=O)N[C@@H]([C@@H](C)O)C(=O)N[C@@H](C)C(=O)N[C@@H]([C@@H](C)O)C(=O)N1)[C@@H](C)O)C(=O)N1CCC[C@H]1C(=O)N[C@@H](CO)C(=O)N[C@@H](CO)C(=O)N[C@H](C(=O)N[C@@H](CC(N)=O)C(=O)N[C@H](C(=O)NCC(=O)N[C@@H](CCCNC(=N)N)C(=O)N[C@@H](CC(N)=O)C(=O)N[C@H](C(=O)N[C@@H](Cc1ccc(O)cc1)C(N)=O)[C@@H](C)O)C(C)C)[C@@H](C)O` [Example 39] ({C20 diacid-γGlu}-KCNTATCATQRLANFLRHSSPNFGAIPSSTNVGRNTY-NH2; disulfide 2-7), for which the 50% inhibitory concentration (IC50) in test [1] was found to be 0.665 nM; at rat calcitonin receptor, 96.4 nM. The “Ratio hCT/hAmylin binding” value in test [1] (setting [3]), in test [1] (setting [4]), in test [1] (setting [5]), in test [1] (setting [6]), in test [1] (setting [7]) and in test [1] (setting [8]) was 29.0 throughout. Moreover, the “Ratio hCT/hAmylin binding” value in test [1] (setting [9]) is 29.0. Further, the “Ratio hCT/hAmylin funct.” value in test [2] (setting [10]), in test [2] (setting [11]) and in test [2] (setting [12]) was 11.6 each time. Further, in test [2], the EC50 was determined as 0.217 nM.

In general, IC50 refers to the concentration needed to halve the response being measured. As usually defined, the EC50 is the midpoint of the concentration-response curve.
